Laboratory results taken from paper PMC9569680, “Antiviral Compounds Screening Targeting HBx Protein of the Hepatitis B Virus” (International Journal of Molecular Sciences, 2022).
Counter-ions that a name gives are not always drawn. Like-named read-outs stand apart in the source and are kept apart here.

Tests used:
[1] = molecular target: T1, GST-HBx (genotype B); HBx-B; experiment: SPR imaging, compound array (PlexArray HT); parameters: species or system Hepatitis B virus; conditions: PBS, 25 °C; compound UV-linked to chip surface, GST-HBx 25-100 nM as analyte
T1 construct: gene X; N-terminal GST tag kept (GST 26 kDa; GST-HBx 43 kDa), full-length HBx (154 aa), pGEX, E. coli BL21 (DE3), glutathione-Sepharose

[2] = molecular target: T2, GST-HBx (genotype D); HBx-D (Hepatitis B virus, UniProt Q80IS1); experiment: SPR imaging, compound array (PlexArray HT); assay type: binding
T2 construct: gene X; N-terminal GST tag kept (GST 26 kDa; GST-HBx 43 kDa), full-length HBx (154 aa), pGEX, E. coli BL21 (DE3), glutathione-Sepharose
Description: SPR imaging, compound array (PlexArray HT) on GST-HBx (genotype D); HBx-D

[3] = molecular target: T2, GST-HBx (genotype D); HBx-D; experiment: biochemical; parameters: Surface plasmon resonance imaging; GST-HBx injected over chip of photo-crosslinked FDA-approved drugs (PlexArray HT), Langmuir fit
Description: All the assays and analyses were performed by Plexera LLC. The binding activity was measured by surface plasmon resonance imaging (SPRi) using a PlexArray HT system (Plexera LLC). The FDA1018 drug library chip consists of an array of 1018 U.S. FDA-approved drugs were ultraviolet-linked on the surface of a chip and used for screening of compounds that bind to the HBx protein. Phosphate-buffered saline was used for a running buffer and 10 mM glycine hydrochloride (pH 2.0) for a regeneration buffer. 25, 50, or 100 nM of GST-HBx protein were injected on the chip surface at a flow rate of […] in order, and the SPRi signal was measured at 25 °C. FK506-binding protein 12 (FKBP12) was used for a positive control (Supplementary Figure S1). The data were analyzed by Plexera Data Analysis Software based on Langmuir adsorption isotherm, and determination of the dissociation constant, dissociation rate constant, and association rate constant was carried out. The binding of GST-HBx protein to 1018 FDA-approved compounds was screened on a chip by SPRi assay. […] Because purification of HBx alone was difficult due to insolubility, HBx was expressed as a GST-fused protein.

Structure (SMILES)	Kd [1] [nM]	Kd [2] [nM]	Kd [3] [nM]	kon ([3]; binder, kon (M-1 s-1)) [M⁻¹ s⁻¹]	kon ([3]; read-out: kon) [M⁻¹ s⁻¹]	koff [3] [s⁻¹]
CC[C@H]1OC(=O)[C@H](C)[C@@H](O[C@H]2C[C@@](C)(OC)[C@@H](O)[C@H](C)O2)[C@H](C)[C@@H](O[C@@H]2O[C@H](C)C[C@H](N(C)C)[C@H]2O)[C@](C)(O)C[C@@H](C)CN(C)[C@H](C)[C@@H](O)[C@]1(C)O [Azithromycin]	1.31	0.0467	1.15	89200	85100	
CC1=NN(c2ccc(C)c(C)c2)C(=O)/C1=N\Nc1cccc(-c2cccc(C(=O)O)c2)c1O [Eltrombopag]			8.46		45500	0.000385
CC1(C)[C@@H](O[C@H]2O[C@H](C(=O)O)[C@@H](O)[C@H](O)[C@H]2O[C@@H]2O[C@H](C(=O)O)[C@@H](O)[C@H](O)[C@H]2O)CC[C@]2(C)[C@H]3C(=O)C=C4[C@@H]5C[C@@](C)(C(=O)O)CC[C@]5(C)CC[C@@]4(C)[C@]3(C)CC[C@@H]12 [Ammonium glycyrrhizinate]		0.756			143000	0.000108
CC(C(=O)O)c1ccc2c(c1)Cc1cccnc1O2 (stereo not drawn) [Pranoprofen]			5.58		52300	0.000292
COc1ccc(/C=C/C(=O)Nc2ccccc2C(=O)O)cc1OC [Tranilast]	0.184	0.00135			194000	2.61e-07
CC(C)NCC(O)COc1ccc(CCOCC2CC2)cc1 (stereo not drawn) [Betaxolol]			1.28		7710	9.85e-06
O=C(O)c1ccc(-n2nc(-c3ccccc3O)nc2-c2ccccc2O)cc1 [Deferasirox]			1.4		95800	0.000134
CCOc1nc2cccc(C(=O)O)c2n1Cc1ccc(-c2ccccc2-c2nnn[nH]2)cc1 [Candesartan]			1.33		158000	0.00021
CC[C@H]1OC(=O)C[C@@H](O)[C@H](C)[C@@H](O[C@@H]2O[C@H](C)[C@@H](O)[C@H](N(C)C)[C@H]2O)[C@@H](CCN2C[C@H](C)C[C@H](C)C2)C[C@@H](C)C(=O)/C=C/C(C)=C/[C@@H]1CO[C@@H]1O[C@H](C)[C@@H](O)[C@@H](OC)[C@H]1OC [Tilmicosin]			1.3		67700	8.79e-05
Cc1cnc(C(=O)NCCc2ccc(S(=O)(=O)NC(=O)NC3CCCCC3)cc2)cn1 [Glipizide]			4.49		45100	0.000203
Cc1noc(NS(=O)(=O)c2ccc(N)cc2)c1C [Sulfisoxazole]			9.88		51500	0.000509
CCCCCCCCCCCC[N+](C)(C)CCOc1ccccc1 [Domiphen Bromide]		0.0288			105000	3.03e-06
CCCCC(=O)N(Cc1ccc(-c2ccccc2-c2nn[nH]n2)cc1)[C@H](C(=O)O)C(C)C [Valsartan]	7.94	0.912			186000	0.00017
CCOc1nc2cccc(C(=O)O)c2n1Cc1ccc(-c2ccccc2-c2noc(=O)[nH]2)cc1 [Azilsartan]			2.38		146000	0.000348
CCCCC(CC)CNC(=N)NC(=N)NCCCCCCNC(=N)NC(=N)NCC(CC)CCCC (stereo not drawn) [Alexidine hydrochloride]		0.0495			158000	7.83e-06
CC(C(=O)O)c1ccc(C(=O)c2cccs2)cc1 (stereo not drawn) [Suprofen]			2.75		112000	0.000308
CC(C)[C@H]1CC[C@H](C(=O)N[C@H](Cc2ccccc2)C(=O)O)CC1 [Nateglinide]			2.31		69100	0.00016
CCC1=C(C)CN(C(=O)NCCc2ccc(S(=O)(=O)NC(=O)N[C@H]3CC[C@H](C)CC3)cc2)C1=O [Glimepiride]			9.81		37300	0.000366
CCCc1nc(C(C)(C)O)c(C(=O)OCc2oc(=O)oc2C)n1Cc1ccc(-c2ccccc2-c2nnn[nH]2)cc1 [Olmesartan medoxomil]					108000	0.000581
